Measured values as given in US11000033B2, “Ketone or oxime compound, and herbicide” (NISSAN CHEMICAL CORPORATION, priority 2014, dated 2021).

Key:
Assay type in all cases: in vivo
[1] = test system: Echinochloa crus-galli var. crus-galli; assay: Test Example 4: herbicidal effect by soil treatment (symbol H); conditions: application herbicide amount 320 g/ha
Outline: (§1)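 Seeds were sown in sterilized diluvial soil, covered with about 1.5 cm of soil, and the soil surface was sprayed with a water-diluted emulsion of the compound at a predetermined rate. Plants grew in a greenhouse at 25° C. to 30° C.; effects were scored visually 3 weeks after application.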

Veronica persica = assay: Test Example 4: herbicidal effect by soil treatment (symbol R); conditions: application herbicide amount 320 g/ha
Outline: as §1

Abutilon theophrasti = assay: Test Example 4: herbicidal effect by soil treatment (symbol M); conditions: application herbicide amount 320 g/ha
Outline: as §1

Monochoria vaginalis = assay: Test Example 2: herbicidal activity, application during weed generation in submerged conditions (symbol C); conditions: Table 23; application herbicide amount 320 g/ha; grade 0-5 by criteria of Test Example 1
Outline: (§2)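 Seeds sown in flooded alluvial soil (4 cm water) were grown in a 25-30° C greenhouse. At the one- to two-leaf stage, diluted emulsion of compound was applied to the water surface at a predetermined rate. Effect was scored 3 weeks later.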

Scirpus juncoides = assay: Test Example 2: herbicidal activity, application during weed generation in submerged conditions (symbol B); conditions: Table 23; application herbicide amount 320 g/ha; grade 0-5 by criteria of Test Example 1
Outline: as §2

corn = assay: Test Example 5: effect on crop by foliage application, plastic box (symbol c); conditions: 320 g/ha, 3 weeks after application
Outline: (§3)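 Crop and weed seeds sown in spots in sterilized diluvial soil in plastic boxes and covered with about 1.5 cm soil. Plants raised in a greenhouse at 25° C. to 30° C. for foliar application.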

transplanted rice plant = assay: Test Example 1: effect on crop, application before weed generation in submerged conditions (symbol a); conditions: application herbicide amount 320 g/ha
Outline: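 Alluvial soil pots flooded to 4 cm water, sown with Echinochloa oryzacola, Scirpus juncoides and Monochoria vaginalis, then transplanted with 2.5 leaf stage rice seedlings; pre-emergence application. Greenhouse 25° C. to 30° C.; scored 0–5 by herbicidal ratio 3 weeks after application.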

Chenopodium album = assay: Test Example 4: herbicidal effect by soil treatment (symbol O); conditions: application herbicide amount 320 g/ha
Outline: as §1

Setaria viridis = assay: Test Example 5: herbicidal effect by foliage application, plastic box (symbol G); conditions: 320 g/ha, 3 weeks after application
Outline: (§4)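 Sowing in sterilized diluvial soil, 14 days' greenhouse growth at 25° C. to 30° C., then uniform small-sprayer foliar application of aqueous emulsion dilution; plants scored three weeks afterwards.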

Amaranthus retroflexus = assay: Test Example 5: herbicidal effect by foliage application, plastic box (symbol N); conditions: 320 g/ha, 3 weeks after application
Outline: as §4

soybean = assay: Test Example 5: effect on crop by foliage application, plastic box (symbol d); conditions: 320 g/ha, 3 weeks after application
Outline: as §3

[2] = test system: Echinochloa oryzacola Vasing.; assay: Test Example 1: herbicidal activity, application before weed generation in submerged conditions (symbol A); conditions: application herbicide amount 320 g/ha
Outline: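 Ratings (5: ≥90%, near complete withering; 4: 70–<90%; 3: 40–<70%; 2: 20–<40%; 1: 5–<20%; 0: ≤5%) were assigned 3 weeks after the diluted emulsion was applied to the water surface of freshly sown, submerged pots.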

Cyperus difformis = assay: Test Example 3: herbicidal effect by foliage application, Wagner pot (symbol E); conditions: application herbicide amount 320 g/ha; for E herbicidal effect grade: Table 24
Outline: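 Plants sown in submerged alluvial soil (water depth 0.1–0.5 cm) in a 25–30 °C greenhouse and grown 14 days. An emulsion of the compound diluted in water to a set herbicide amount was sprayed uniformly on foliage. Effect on each plant scored 3 weeks after application.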

SMILES | Herbicidal effect grade, H: Echinochloa crus-galli var. crus-galli [1] | Herbicidal effect grade, R: Veronica persica (Veronica persica) | Herbicidal effect grade, M: Abutilon theophrasti (Abutilon theophrasti) | Herbicidal effect grade, C: Monochoria vaginalis (Monochoria vaginalis) | Herbicidal effect grade, B: Scirpus juncoides (Scirpus juncoides) | c: corn, effect on crop (criteria of Test Example 1) (corn) | Effect grade on crop, a: transplanted rice plant (transplanted rice plant) | Herbicidal effect grade, O: Chenopodium album (Chenopodium album) | G: Setaria viridis, herbicidal effect (criteria of Test Example 1) (Setaria viridis) | N: Amaranthus retroflexus, herbicidal effect (criteria of Test Example 1) (Amaranthus retroflexus) | d: soybean, effect on crop (criteria of Test Example 1) (soybean) | Herbicidal effect grade, A: Echinochloa oryzacola Vasing. [2] | herbicidal effect on E, grade 0-5 (Cyperus difformis) | E herbicidal effect grade (Cyperus difformis) | c: corn, effect on crop grade (corn) | G: Setaria viridis, herbicidal effect grade (Setaria viridis) | N: Amaranthus retroflexus, herbicidal effect grade (Amaranthus retroflexus) | d: soybean, effect on crop grade (soybean)
CON=C(C)CC1CC(O)=C(c2c(F)cc(-c3ccccc3)cc2OC)C1=O (stereo not drawn) [6-107] | 5 (Herbicidal ratio of 90% or more (almost completely withered)) | 4 (Herbicidal ratio of 70% or higher and lower than 90%) | 4 (Herbicidal ratio of 70% or higher and lower than 90%) | 5 (Herbicidal ratio of 90% or more (almost completely withered)) | 5 (Herbicidal ratio of 90% or more (almost completely withered)) | 5 (Herbicidal ratio of 90% or more (almost completely withered)) | 5 (Herbicidal ratio of 90% or more (almost completely withered)) | 4 (Herbicidal ratio of 70% or higher and lower than 90%) | 5 (Herbicidal ratio of 90% or more (almost completely withered)) | 2 (Herbicidal ratio of 20% or higher and lower than 40%) | 1 (Herbicidal ratio of 5% or higher and lower than 20%) | 5 (Herbicidal ratio of 90% or more (almost completely withered)) |  |  |  |  |  | 
CC(=O)CC1CC(O)=C(c2c(C)cc(Oc3ccc(C(F)(F)F)cn3)cc2C)C1=O (stereo not drawn) [7-019] | 0 (Herbicidal ratio of 5% or lower (almost no effect)) | 0 (Herbicidal ratio of 5% or lower (almost no effect)) | 0 (Herbicidal ratio of 5% or lower (almost no effect)) |  |  | 2 (Herbicidal ratio of 20% or higher and lower than 40%) | 0 (Herbicidal ratio of 5% or lower (almost no effect)) | 0 (Herbicidal ratio of 5% or lower (almost no effect)) | 3 (Herbicidal ratio of 40% or higher and lower than 70%) | 0 (Herbicidal ratio of 5% or lower (almost no effect)) | 0 (Herbicidal ratio of 5% or lower (almost no effect)) | 1 (Herbicidal ratio of 5% or higher and lower than 20%) | 2 (Herbicidal ratio of 20% or higher and lower than 40%) |  |  |  |  | 
CC(=O)CC1CC(O)=C(c2c(C)cc(Br)cc2C)C1=O (stereo not drawn) [7-002] | 5 (Herbicidal ratio of 90% or more (almost completely withered)) |  | 0 (Herbicidal ratio of 5% or lower (almost no effect)) | 0 (Herbicidal ratio of 5% or lower (almost no effect)) | 0 (Herbicidal ratio of 5% or lower (almost no effect)) | 3 (Herbicidal ratio of 40% or higher and lower than 70%) | 2 (Herbicidal ratio of 20% or higher and lower than 40%) | 0 (Herbicidal ratio of 5% or lower (almost no effect)) | 3 (Herbicidal ratio of 40% or higher and lower than 70%) | 0 (Herbicidal ratio of 5% or lower (almost no effect)) | 0 (Herbicidal ratio of 5% or lower (almost no effect)) | 0 (Herbicidal ratio of 5% or lower (almost no effect)) | 3 (Herbicidal ratio of 40% or higher and lower than 70%) |  |  |  |  | 
CON=C(C)C(=NOC)C1CC(O)=C(c2c(C)cc(C)cc2C)C1=O (stereo not drawn) [8-003] | 0 (Herbicidal ratio of 5% or lower (almost no effect)) |  | 0 (Herbicidal ratio of 5% or lower (almost no effect)) | 0 (Herbicidal ratio of 5% or lower (almost no effect)) | 0 (Herbicidal ratio of 5% or lower (almost no effect)) |  | 0 (Herbicidal ratio of 5% or lower (almost no effect)) | 0 (Herbicidal ratio of 5% or lower (almost no effect)) |  |  |  | 0 (Herbicidal ratio of 5% or lower (almost no effect)) |  | 0 (Herbicidal ratio of 5% or lower (almost no effect)) | 0 (Herbicidal ratio of 5% or lower (almost no effect)) | 0 (Herbicidal ratio of 5% or lower (almost no effect)) | 0 (Herbicidal ratio of 5% or lower (almost no effect)) | 0 (Herbicidal ratio of 5% or lower (almost no effect))
CON=C(C)C(C)C1CC(O)=C(c2c(C)cc(Br)cc2OC)C1=O (stereo not drawn) [6-113] | 5 (Herbicidal ratio of 90% or more (almost completely withered)) | 0 (Herbicidal ratio of 5% or lower (almost no effect)) |  | 3 (Herbicidal ratio of 40% or higher and lower than 70%) | 0 (Herbicidal ratio of 5% or lower (almost no effect)) | 5 (Herbicidal ratio of 90% or more (almost completely withered)) | 5 (Herbicidal ratio of 90% or more (almost completely withered)) | 0 (Herbicidal ratio of 5% or lower (almost no effect)) | 5 (Herbicidal ratio of 90% or more (almost completely withered)) | 0 (Herbicidal ratio of 5% or lower (almost no effect)) | 0 (Herbicidal ratio of 5% or lower (almost no effect)) | 4 (Herbicidal ratio of 70% or higher and lower than 90%) | 5 (Herbicidal ratio of 90% or more (almost completely withered)) |  |  |  |  | 
COc1cc(Br)cc(F)c1C1=C(O)CC(CC(C)=O)C1=O (stereo not drawn) [7-029] | 2 (Herbicidal ratio of 20% or higher and lower than 40%) | 0 (Herbicidal ratio of 5% or lower (almost no effect)) | 0 (Herbicidal ratio of 5% or lower (almost no effect)) |  |  |  | 0 (Herbicidal ratio of 5% or lower (almost no effect)) | 0 (Herbicidal ratio of 5% or lower (almost no effect)) |  |  |  | 2 (Herbicidal ratio of 20% or higher and lower than 40%) |  | 0 (Herbicidal ratio of 5% or lower (almost no effect)) |  |  |  | 
